Source: ChEMBL document CHEMBL6092206, “Discovery and Characterization of BAY-184: A New Potent and Selective Acylsulfonamide-Benzofuran In Vivo-Active KAT6AB Inhibitor” (J Med Chem, 2024)
≈ marks a conversion by molar mass, not a printed value.

What was measured:
[1] = molecular target: T1, Histone acetyltransferase KAT6A (Homo sapiens, UniProt Q92794); assay: Inhibition of KAT6A in human MVLN cells assessed as decrease in estrogen receptor level incubated for 24 hrs by gene reporter assay; assay type: cell-based
[2] = molecular target: T1, Histone acetyltransferase KAT6A; assay: Inhibition of his-tagged human recombinant KAT6A (194 to 810 residues) expressed in baculovirus-infected Sf9 insect cells using H4-derived peptide as substrate incubated for 40 mins in presence of AcCoA by TR-FRET assay
[3] = Dissociation constant, pKa of compound; assay type: physicochemical
[4] = molecular target: Histone acetyltransferase KAT6B (Homo sapiens, UniProt Q8WYB5); assay: Inhibition of C-terminal human recombinant KAT6B (431 to end residues) expressed in baculovirus-infected Sf9 insect cells using H4-derived peptide as substrate incubated for 30 mins in presence of AcCoA by TR-FRET assay
[5] = Aqueous solubility of compound in PBS at pH 6.5 incubated for 24 hrs by HPLC-UV analysis; assay type: physicochemical
[6] = Lipophilicity, logD of the compound at pH 7.5; assay type: physicochemical; conditions: buffer
[7] = Efflux ratio of apparent permeability across basolateral to apical side over apical to basolateral side in human Caco-2 cells incubated for 2 hrs by LC-MS/MS analysis; assay type: ADME, cell-based; conditions: caco-2, 2 h
[8] = Apparent permeability across apical to basolateral side in human Caco-2 cells at 2 uM pH 7.2 measured for 2 hrs by LC-MS/MS analysis; assay type: ADME, cell-based

Histone acetyltransferase KAT6B, sequence (Q8WYB5 whole entry): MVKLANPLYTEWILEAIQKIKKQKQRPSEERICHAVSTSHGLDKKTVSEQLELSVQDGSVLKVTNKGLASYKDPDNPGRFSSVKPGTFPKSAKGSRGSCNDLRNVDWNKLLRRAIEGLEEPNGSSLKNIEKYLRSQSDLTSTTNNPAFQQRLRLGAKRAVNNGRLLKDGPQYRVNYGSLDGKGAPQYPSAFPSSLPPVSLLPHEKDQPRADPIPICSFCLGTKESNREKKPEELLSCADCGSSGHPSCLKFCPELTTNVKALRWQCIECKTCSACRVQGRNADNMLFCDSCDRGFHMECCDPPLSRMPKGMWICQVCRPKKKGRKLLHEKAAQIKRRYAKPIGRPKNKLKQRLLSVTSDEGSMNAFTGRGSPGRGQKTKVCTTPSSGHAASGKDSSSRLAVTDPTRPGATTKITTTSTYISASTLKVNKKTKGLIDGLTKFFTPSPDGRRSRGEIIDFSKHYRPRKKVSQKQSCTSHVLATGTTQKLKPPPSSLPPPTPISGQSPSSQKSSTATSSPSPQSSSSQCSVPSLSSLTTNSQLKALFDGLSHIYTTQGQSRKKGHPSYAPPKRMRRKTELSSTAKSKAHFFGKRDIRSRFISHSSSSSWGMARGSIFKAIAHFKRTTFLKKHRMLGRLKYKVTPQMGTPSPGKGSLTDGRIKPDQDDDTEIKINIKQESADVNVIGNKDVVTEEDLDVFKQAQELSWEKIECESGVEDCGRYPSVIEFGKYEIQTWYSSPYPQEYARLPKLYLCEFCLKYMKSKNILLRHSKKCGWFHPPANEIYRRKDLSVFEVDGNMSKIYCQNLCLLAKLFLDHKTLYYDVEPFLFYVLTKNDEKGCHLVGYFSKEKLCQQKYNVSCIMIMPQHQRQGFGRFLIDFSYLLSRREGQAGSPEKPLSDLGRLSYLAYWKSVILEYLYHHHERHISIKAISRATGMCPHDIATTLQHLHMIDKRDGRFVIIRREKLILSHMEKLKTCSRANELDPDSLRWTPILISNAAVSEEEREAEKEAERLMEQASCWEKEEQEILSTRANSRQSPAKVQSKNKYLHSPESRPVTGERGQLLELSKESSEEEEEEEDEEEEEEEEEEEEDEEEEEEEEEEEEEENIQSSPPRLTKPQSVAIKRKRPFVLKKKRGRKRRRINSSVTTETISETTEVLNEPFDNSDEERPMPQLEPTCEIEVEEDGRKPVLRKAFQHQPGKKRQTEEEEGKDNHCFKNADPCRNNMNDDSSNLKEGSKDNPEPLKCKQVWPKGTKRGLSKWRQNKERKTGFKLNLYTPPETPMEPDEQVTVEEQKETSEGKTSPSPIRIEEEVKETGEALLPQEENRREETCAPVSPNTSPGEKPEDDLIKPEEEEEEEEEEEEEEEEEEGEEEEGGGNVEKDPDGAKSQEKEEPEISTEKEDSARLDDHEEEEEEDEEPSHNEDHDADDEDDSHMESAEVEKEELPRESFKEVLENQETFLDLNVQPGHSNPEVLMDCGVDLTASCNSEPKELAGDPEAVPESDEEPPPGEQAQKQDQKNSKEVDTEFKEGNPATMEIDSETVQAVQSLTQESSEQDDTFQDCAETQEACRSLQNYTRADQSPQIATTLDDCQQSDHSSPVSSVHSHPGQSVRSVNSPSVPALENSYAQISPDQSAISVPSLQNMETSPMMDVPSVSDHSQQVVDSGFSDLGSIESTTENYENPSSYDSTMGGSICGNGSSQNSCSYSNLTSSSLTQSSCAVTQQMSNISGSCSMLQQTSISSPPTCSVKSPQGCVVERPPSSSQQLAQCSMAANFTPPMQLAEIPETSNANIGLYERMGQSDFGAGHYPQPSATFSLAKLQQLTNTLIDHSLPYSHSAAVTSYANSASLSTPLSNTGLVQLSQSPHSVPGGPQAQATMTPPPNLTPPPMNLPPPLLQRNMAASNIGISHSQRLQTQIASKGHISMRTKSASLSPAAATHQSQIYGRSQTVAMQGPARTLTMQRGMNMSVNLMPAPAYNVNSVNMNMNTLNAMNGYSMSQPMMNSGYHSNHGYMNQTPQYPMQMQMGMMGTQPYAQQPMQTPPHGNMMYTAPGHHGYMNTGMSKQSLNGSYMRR
T1 sequence (Q92794 whole entry, the tested form may be a part): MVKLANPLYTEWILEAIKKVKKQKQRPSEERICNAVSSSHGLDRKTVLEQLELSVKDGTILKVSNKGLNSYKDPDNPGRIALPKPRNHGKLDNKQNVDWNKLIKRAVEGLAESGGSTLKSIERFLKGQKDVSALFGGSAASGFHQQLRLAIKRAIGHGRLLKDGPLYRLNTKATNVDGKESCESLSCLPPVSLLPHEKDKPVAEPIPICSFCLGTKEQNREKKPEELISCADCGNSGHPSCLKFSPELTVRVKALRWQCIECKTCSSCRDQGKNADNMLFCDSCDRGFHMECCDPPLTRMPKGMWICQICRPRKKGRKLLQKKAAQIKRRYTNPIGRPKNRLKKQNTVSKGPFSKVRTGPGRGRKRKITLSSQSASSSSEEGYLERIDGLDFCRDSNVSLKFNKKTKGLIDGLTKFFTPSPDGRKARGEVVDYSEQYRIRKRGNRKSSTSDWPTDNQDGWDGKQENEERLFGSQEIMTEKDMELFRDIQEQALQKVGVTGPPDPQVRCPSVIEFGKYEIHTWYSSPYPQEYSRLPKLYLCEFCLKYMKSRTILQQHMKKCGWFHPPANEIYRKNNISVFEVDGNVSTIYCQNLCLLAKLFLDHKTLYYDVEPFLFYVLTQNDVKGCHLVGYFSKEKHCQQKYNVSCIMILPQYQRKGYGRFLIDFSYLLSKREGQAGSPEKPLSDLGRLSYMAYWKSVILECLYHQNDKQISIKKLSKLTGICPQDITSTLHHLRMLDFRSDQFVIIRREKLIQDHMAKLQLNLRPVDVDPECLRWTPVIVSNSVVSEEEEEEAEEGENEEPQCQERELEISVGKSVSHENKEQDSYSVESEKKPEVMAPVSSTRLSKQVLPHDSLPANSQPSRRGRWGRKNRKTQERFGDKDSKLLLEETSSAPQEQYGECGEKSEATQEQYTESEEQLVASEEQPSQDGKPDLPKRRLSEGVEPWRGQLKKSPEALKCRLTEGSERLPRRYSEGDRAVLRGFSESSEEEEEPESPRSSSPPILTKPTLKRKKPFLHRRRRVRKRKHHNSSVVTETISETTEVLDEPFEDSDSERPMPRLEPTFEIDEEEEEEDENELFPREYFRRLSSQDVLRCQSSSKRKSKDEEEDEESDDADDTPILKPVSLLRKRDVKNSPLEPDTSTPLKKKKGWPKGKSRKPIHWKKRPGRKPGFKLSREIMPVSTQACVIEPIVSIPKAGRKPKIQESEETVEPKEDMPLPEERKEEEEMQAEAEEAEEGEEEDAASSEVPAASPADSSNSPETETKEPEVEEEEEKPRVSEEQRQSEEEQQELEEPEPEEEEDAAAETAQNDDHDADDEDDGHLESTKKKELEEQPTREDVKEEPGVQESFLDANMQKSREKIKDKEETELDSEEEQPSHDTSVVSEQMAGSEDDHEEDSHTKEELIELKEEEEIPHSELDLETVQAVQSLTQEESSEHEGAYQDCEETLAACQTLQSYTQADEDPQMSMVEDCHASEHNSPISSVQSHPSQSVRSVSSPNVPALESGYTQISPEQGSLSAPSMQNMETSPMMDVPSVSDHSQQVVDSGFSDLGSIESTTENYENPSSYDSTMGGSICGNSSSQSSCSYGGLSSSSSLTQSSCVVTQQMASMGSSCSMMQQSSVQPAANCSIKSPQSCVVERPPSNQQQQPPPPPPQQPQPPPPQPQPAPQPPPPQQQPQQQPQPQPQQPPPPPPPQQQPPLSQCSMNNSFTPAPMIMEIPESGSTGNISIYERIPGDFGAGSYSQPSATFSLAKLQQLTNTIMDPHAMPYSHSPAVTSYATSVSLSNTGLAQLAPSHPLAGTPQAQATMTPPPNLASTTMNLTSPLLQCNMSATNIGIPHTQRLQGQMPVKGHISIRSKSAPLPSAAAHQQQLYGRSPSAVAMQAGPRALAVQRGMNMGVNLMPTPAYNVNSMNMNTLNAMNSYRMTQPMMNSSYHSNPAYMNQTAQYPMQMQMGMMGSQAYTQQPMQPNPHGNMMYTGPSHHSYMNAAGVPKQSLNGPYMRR

IC50 [1] [nM] | IC50 [2] [nM] | SMILES | further results
> 15500 | 1350 | COCCN(C)c1ccc2cc(C(=O)NS(=O)(=O)c3ccccc3-c3ccccc3)oc2c1 | –
> 20000 | – | O=C(NS(=O)(=O)c1ccccc1-c1ccccc1)c1cc2ccc(C(F)F)cc2o1 | –
> 20000 | > 20000 | O=C(NS(=O)(=O)c1ccccc1-c1ccccc1)c1cc2ccc(N3CCOCC3)cc2o1 | –
> 11000 | – | Cc1ccc2cc(C(=O)NS(=O)(=O)c3ccccc3-c3ccccc3)oc2c1 | –
– | 454 | Cc1cccc2oc(C(=O)NS(=O)(=O)c3ccccc3-c3ccccc3)cc12 | IC50 [4]: 2570 nM
– | 1350 | COc1cccc2oc(C(=O)NS(=O)(=O)c3ccccc3-c3ccccc3)cc12 | IC50 [4]: 3140 nM
7620 | 260 | COc1ccc2cc(C(=O)NS(=O)(=O)c3ccccc3-c3ccccc3)oc2c1 | IC50 [4]: 368 nM
3020 | – | CC(C)c1ccc2cc(C(=O)NS(=O)(=O)c3ccccc3-c3ccccc3)oc2c1 | –
> 4600 | 24 | COc1cc(C)c2cc(C(=O)NS(=O)(=O)c3ccccc3-c3ccccc3)oc2c1 | IC50 [4]: 76 nM; Ratio [7]: 1; pKa [3]: 4.3; Papp ([8]; caco-2, pH 7.2, 2 h, 2 µM): 6.4 ×10⁻⁶ cm/s
2580 | – | CNc1ccc2cc(C(=O)NS(=O)(=O)c3ccccc3-c3ccccc3)oc2c1 | –
9750 | 554 | CCOc1ccc2cc(C(=O)NS(=O)(=O)c3ccccc3-c3ccccc3)oc2c1 | –
> 20000 | 2160 | O=C(NS(=O)(=O)c1ccccc1-c1ccccc1)c1cc2ccccc2o1 | IC50 [4]: 10500 nM
– | 1800 | COc1ccc2oc(C(=O)NS(=O)(=O)c3ccccc3-c3ccccc3)cc2c1 | IC50 [4]: 9020 nM
8680 | 1540 | CCCOc1ccc2cc(C(=O)NS(=O)(=O)c3ccccc3-c3ccccc3)oc2c1 | –
> 20000 | 1370 | O=C(NS(=O)(=O)c1ccccc1-c1ccccc1)c1cc2ccc(OCCO)cc2o1 | –
> 15600 | – | COCCc1ccc2cc(C(=O)NS(=O)(=O)c3ccccc3-c3ccccc3)oc2c1 | –
4520 | 142 | COc1cccc2cc(C(=O)NS(=O)(=O)c3ccccc3-c3ccccc3)oc12 | IC50 [4]: 351 nM
1320 | – | C=C(C)c1ccc2cc(C(=O)NS(=O)(=O)c3ccccc3-c3ccccc3)oc2c1 | –
> 20000 | 751 | CCCN(C)c1ccc2cc(C(=O)NS(=O)(=O)c3ccccc3-c3ccccc3)oc2c1 | –
> 20000 | 66 | Cc1cc(Br)cc2oc(C(=O)NS(=O)(=O)c3ccccc3-c3ccccc3)cc12 | –

More lines, now with the values behind:

SMILES | IC50 [1] [nM] | IC50 [2] [nM] | further results
O=C(NS(=O)(=O)c1ccccc1-c1ccccc1)c1cc2ccc(C3CC3)cc2o1 | 1020 | – | –
CCCOc1ccccc1S(=O)(=O)NC(=O)c1cc2c(C)cc(OC)cc2o1 | 6540 | 19 | pKa [3]: 4
O=C(NS(=O)(=O)c1ccccc1-c1ccccc1)c1cc2c(F)cc(C3CC3)cc2o1 | 1000 | 173 | –
COc1cc(C)cc2oc(C(=O)NS(=O)(=O)c3ccccc3-c3ccccc3)cc12 | 10000 | – | –
CN(C)c1cc(F)c2cc(C(=O)NS(=O)(=O)c3ccccc3-c3ccccc3)oc2c1 | 60 | – | solubility at 24 h [5]: 264 µg/mL (≈ 602 µM); logD [6]: 2
CCOc1ccccc1S(=O)(=O)NC(=O)c1cc2c(OC)cc(OC)cc2o1 | – | – | Papp A→B at 2 h, 2 µM ([8]; Caco-2, pH 7.2): 2.8 ×10⁻⁶ cm/s
COc1cc(C)c2cc(C(=O)NS(=O)(=O)c3ccc(C)cc3)oc2c1 | 18200 | 107 | pKa [3]: 3
Cc1cc(C)c2cc(C(=O)NS(=O)(=O)c3ccccc3-c3ccccc3)oc2c1 | 2500 | – | –
COc1cc(C)c2cc(C(=O)NS(=O)(=O)c3ccc(Cl)cc3)oc2c1 | 2280 | 75 | pKa [3]: 2.9
CCOc1cccc(-c2ccccc2)c1S(=O)(=O)NC(=O)c1cc2c(C)cc(OC)cc2o1 | 1400 | 32 | pKa [3]: 5.6
COc1cc(C)c2cc(C(=O)NS(=O)(=O)c3ccc(-c4ccccc4)cc3)oc2c1 | > 17600 | 46 | pKa [3]: 5.8
COc1cc(C)c2cc(C(=O)NS(=O)(=O)c3cccc4ccc(C)nc34)oc2c1 | 2570 | 13 | –
CCOc1cccc(-c2cccc(Cl)c2)c1S(=O)(=O)NC(=O)c1cc2c(C)cc(OC)cc2o1 | 3680 | 11 | pKa [3]: 6
COc1cc(C)c2cc(C(=O)NS(=O)(=O)c3ccc(C)cc3-c3ccccc3)oc2c1 | > 20000 | 10 | pKa [3]: 4.7
Cc1cc(N(C)C)cc2oc(C(=O)NS(=O)(=O)c3ccccc3-c3ccccc3)cc12 | > 20000 | – | –
COc1cc(C)c2cc(C(=O)NS(=O)(=O)c3ccccc3OC)oc2c1 | 13200 | 46 | pKa [3]: 3.2
